The source of these data is US20240189289A1, “INHIBITORS OF EPHB3 SIGNALING” (The Brigham and Women`s Hospital, Inc., priority 2021, published 2024).

“Also recorded” adds a separate entry of the source.

One data set has as its target T1, EphB3 (Homo sapiens, UniProt P54753).
T1 sequence (P54753 34-998): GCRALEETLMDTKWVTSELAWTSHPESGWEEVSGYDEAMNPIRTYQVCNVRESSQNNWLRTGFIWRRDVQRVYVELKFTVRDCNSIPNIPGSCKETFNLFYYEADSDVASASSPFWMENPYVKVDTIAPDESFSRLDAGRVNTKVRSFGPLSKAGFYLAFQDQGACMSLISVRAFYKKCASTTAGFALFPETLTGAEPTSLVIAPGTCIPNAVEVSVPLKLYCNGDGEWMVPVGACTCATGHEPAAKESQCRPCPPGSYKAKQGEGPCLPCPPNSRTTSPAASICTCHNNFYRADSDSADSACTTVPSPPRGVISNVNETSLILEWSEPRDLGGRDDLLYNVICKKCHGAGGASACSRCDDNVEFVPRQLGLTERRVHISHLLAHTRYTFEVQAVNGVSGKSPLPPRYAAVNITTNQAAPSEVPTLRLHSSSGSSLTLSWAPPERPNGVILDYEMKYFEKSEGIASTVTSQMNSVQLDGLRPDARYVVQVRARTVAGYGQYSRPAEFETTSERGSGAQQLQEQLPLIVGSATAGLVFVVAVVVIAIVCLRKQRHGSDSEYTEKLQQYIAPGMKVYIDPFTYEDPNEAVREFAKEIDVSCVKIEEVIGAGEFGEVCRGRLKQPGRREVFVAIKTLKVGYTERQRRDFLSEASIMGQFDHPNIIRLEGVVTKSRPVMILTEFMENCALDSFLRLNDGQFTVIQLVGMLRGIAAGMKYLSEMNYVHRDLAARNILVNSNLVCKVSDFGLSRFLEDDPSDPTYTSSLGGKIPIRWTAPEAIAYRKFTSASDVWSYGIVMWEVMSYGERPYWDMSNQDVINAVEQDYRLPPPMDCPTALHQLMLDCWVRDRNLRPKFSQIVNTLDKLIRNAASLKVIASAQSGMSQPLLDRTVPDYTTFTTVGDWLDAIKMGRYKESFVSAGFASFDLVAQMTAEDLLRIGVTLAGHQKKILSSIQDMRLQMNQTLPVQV
The experiment in a line: EphB3 radiometric kinase activity assay (33P ATP filter binding). In kind it is biochemical. Particulars: FIG. 1C. How it is done:
EphB3 radiometric kinase activity assay. To study the EphB3 kinase activity, a radioactive filter binding assay using 33P ATP was performed as described at the […] International Centre for Kinase profiling. […] The mix was harvested onto P81 filter plates and counts were read on a Topcount NXT.

The subject of data set [1] is astrocytes. The experiment in a line: Cytotoxicity (LDH release) and apoptosis (caspase-3/7) assay. In kind it is cell-based. How it is done:
Cytotoxicity and apoptosis assay. Compound cytotoxicity was inferred by quantifying Lactate Deshidrogenase (LDH) release to the cells supernatants after 24 h using the CytoTox 96© Non-Radioactive Cytotoxicity Assay, (Promega #G1780) following by manufacturer's protocol. […] Briefly cells were washed with 0.5% BSA, 2 mM EDTAin 1×PBS and incubated with surface antibodies and a live/dead cell marker on ice for 30 minutes. After, cells were washed and following staining for Caspase-3/7 according the manufacturer's instructions (Invitrogen, #C10427).

For data set [2], the system named is astrocytes. Kind of data set: TNFα production in astrocytes (AlphaLISA, astrocyte-microglia co-cultures). In kind it is cell-based, mouse. Particulars: primary astrocytes. How it is done:
AlphaLISA. Astrocyte-microglia co-cultures were seeded in 384 well plates pre coated with Poly-L-Lysine at a density of 10^4 cells/well. After 3 days, cells were preincubated with the corresponding compounds 30 minutes before LPS stimulation (0.5 ng/mL Invivogen #tlrl-3pelps) and supernatants were collected after 18 h of incubation. mTNFalpha kit (Perkin Elmer #AL505) was used to measure TNFα in the supernatants following the high sensitivity protocol according to manufacturer's instructions. Briefly, 2 μl of the supernatants or given standards were subsequently mixed with 5 μl of anti-TNFα acceptor beads, 30 minutes after biotinylated antibody anti-TNFα was added after 1 h SA-Donor beads were added and incubated 30 minutes. All incubations were performed at 23° C. in the dark. Fluorescence at 615 nm was then measured using an EnVision-Apha Reader (Perkin Elmer #2105-0010).
Background: Bead proximity is the source of the signal in Alpha formats.

For another data set, the system named is microglia. The experiment in a line: Neonatal murine microglia stimulated with LPS: qPCR. In kind it is cell-based, mouse. Particulars: induced by LPS stimulation. How it is done: RNA isolation, cDNA synthesis and qPCR. RNA was extracted from in vitro generated samples with RNeasy Mini kit (#74106, QIAGEN) and cDNA was prepared by using the High-Capacity cDNA Reverse Transcription Kit (#4368813, Life Technologies), both according to the manufacturer's protocol. Gene expression was measured by qPCR with Taqman Fast Universal PCR Master Mix (#4367846, Life Technologies). Data were analyzed by the ddCt method by normalizing the expression of each gene to GAPDH and HPRT for mouse and GAPDH for human and then to the control group. All probes are listed below. • Mouse: EphB3 Mm00802553_m1, Ccl2 Mm00441242_m1, Csf2 Mm01290062_m1, Nos2 Mm00440502_m1, Tnf Mm00443258 m1, Il1b Mm00434228_m1, 116 Mm00446190_m1, GAPDH Mm99999915_g1. • Human: CCL2 Hs00234140_m1, CSF2 Hs00929873 ml, NOS2 Hs01075529_m1, TNF • Hs00174128_m1, IL6 Hs00985639_m1, IL1b Hs01555410_m1, GAPDH Hs02758991_g1.
A general note: In qPCR the cycle at which signal appears reflects the starting amount.

The test system of a further data set is N2A neuronal cells. Kind of data set: Neurotoxicity assay of astrocyte-conditioned medium (LDH release). Particulars: ACM from astrocytes pre-treated with compound, LDH release after 24 h. The format is cell-based, mouse. How it is done: Generation of astrocyte-conditioned medium (ACM). […] After 24 h, cells were extensively washed with 1×PBS, and incubated with fresh astrocyte complete medium for 48 h. Supernatants were spun down and kept at −80° C. until tested in migration and neurotoxicity assays.
Neurotoxicity Assay. N2A neuronal cells (#CCL-131, ATCC) were plated and pre-activated with 100 ng/mL mouse IFNγ (#485-MI-100; R&D Systems) for 24 h.
Thereafter, after extensive washing with 1×PBS, medium was replaced with ACM and after 24 h the supernatant was harvested for cytotoxicity evaluation by measuring LDH release with CytoTox 96 nonradioactive cytotoxicity assay kit (#G1780, Promega) following the manufacturer's protocol.

Take `O=C(Nc1ccccc1Cl)c1cnc2ccc(C3CCNCC3)cn12` [A38]: the “EphB3 tyrosine kinase activity in a cell-free assay” value at EphB3 is “inhibited EphB3 tyrosine kinase activity in a dose-dependent manner”. The “cytotoxicity (LDH release)” value in the data set with astrocytes [1] (FIG. 1B) is given as “did not induce cytotoxicity”. Also, the “apoptosis (caspase-3/7 activation)” value in the data set on astrocytes [1] (FIG. 7A) is given as “did not induce cytotoxicity or apoptosis”. Besides, in the data set with astrocytes [2], the “TNFα production in astrocytes” value is “suppressed TNFα production; also recorded: highly efficient in down-modulating TNF-α production”. For the same molecule, in the data set with microglia, the “microglial expression of Nos2” value is recorded as “no effect” and the “microglial expression of Tnfa” value was “no effect”. For the same molecule, the ACM neurotoxic activity result with N2A neuronal cells was “decrease in neurotoxicity; also recorded: reduced ACM neurotoxic”.
